Data from patent publication US8114589B2, “Self-addressable self-assembling microelectronic integrated systems, component devices, mechanisms, methods, and procedures for molecular biological analysis and diagnostics” (Gamida For Life B.V., priority 1996, dated 2012).
Values belong to the molecule of their own block, whether it stands above or below them.

Key:
[1] = cited from earlier work; for pl: Table 3
[2] = Buffer conductivity and pH measurements; format: physicochemical; set-up: conductivity: unit not given here; settings: for conductivity: RT; for pH: in water at room temperature
Protocol: Buffer Conductivity and pH Measurements—The conductivities of test buffer solutions utilized for transport and hybridization were measured at RT using an Accumet 1.0 cm^−1 glass conductivity cell connected to an Accumet Model 50 pH/Ion/Conductivity meter (Fisher Scientific). Buffer pH values were obtained using an Accu-pHast variable temperature combination electrode and the same model meter.

[3] = system: btrRCA5 to ATA5 capture oligonucleotide; assay: Accumulation and electronic hybridization in test buffers; settings: for hybridization efficiency: [(specific hybridization)/(transported)] × 100; for transported: fluorescent signal at completion of electronic targeting; for transported / specific hybridization: value +/− SEM, 50 mM buffer; for support of sequence specific electronic hybridization: in words
Protocol: Microelectronic Chips, Permeation Layer and Instrumentation—These have been described previously with the following exception. The permeation layer employed herein has an underlayer of agarose beneath the top streptavidin-containing agarose layer (approximately one micron in total thickness). To make the underlayer, […] glyoxal agarose (2%) was spun on at 2000 rpms for 20 sec prior to the application of the streptavidin-agarose layer. In brief, the 5580 series APEX chip used for these experiments consists of a 5×5 array of […] circular microelectrodes with […] microelectrodes at each corner of the array. Chips were mounted on a micromanipulator stage and the microelectrodes activated by a power supply and appropriately controlled relay switches. Fluorescently labeled oligonucleotides on the chip were visualized using oblique illumination with two 594 nm HeNe lasers and the images were quantified using either NIH Image or IPLab Spectrum software packages.
Accumulation and Hybridization—Two biotinylated capture oligonucleotides, ATA5 and ATA4 were electronically transported and localized at adjacent microelectrodes. The solution was removed and the chip washed 3-4× in test buffer. Buffers employed in these studies are listed in Table 3 and were utilized at the listed pH values and concentrations presented.
The L-isomers of amino acids were used, unless otherwise noted. The chip was equilibrated in test buffer for 5-10 min. Then fresh buffer containing 10 nM BODIPY-Texas Red labeled RCA5 (btrRCA5), an oligonucleotide complementary to ATA5 but not ATA4 (RS paper) was applied.
The […] microelectrodes were employed as cathodes and one microelectrode within the array used as the corresponding anode. Accumulation was assessed by sourcing a 500 nA constant current to individual microelectrodes for 30 sec and monitoring the accumulation of fluorescence at the positively-biased (anode) site in the microelectrode array. Signal arising from non-fluorescent sources (ie. thermal noise, etc.) was subtracted. Experiments examining the effect of different currents upon signal accumulation were conducted in a similar fashion except that the applied current varied from 100 nA to 1 mA. […] For the comparison between conductivities of various buffers, the data is presented as fold increase over initial fluorescence to account for chip-to-chip variation as well as laser illumination variations in signal levels. For other experiments, the data is presented as attomol product versus time, after converting^2 the observed fluorescence intensity to moles of labeled oligonucleotide.
Following accumulation at one microelectrode location, the buffer was removed and fresh buffer containing btrRCA5 applied. An adjacent microelectrode was then sourced in a similar fashion. Upon completion, the buffer was removed and the chip washed 5-7× with test buffer without btrRCA5. The pair of previously targeted microelectrodes were then illuminated and the fluorescence present at each site quantified. Control experiments utilized a bodipy-Texas Red labeled oligonucleotide complementary to ATA4 to verify the integrity and concentration of the ATA4 capture oligonucleotide. Percent hybridization efficiency was calculated as follows: (complementary oligonucleotide signal−noncomplementary signal)/(signal present immediately prior to the end of the applied current)×100.

[4] = system: btr-RCA5 fluorescent DNA probe; assay: Fluorescent DNA checkerboard addressing; settings: bias reversed every 6 seconds, 80 micron microlocations
[5] = Conductivity measurements of transport buffers; format: physicochemical; settings: for Average/Std. Deviation / Measurement 1 / Measurement 2 / Measurement 3: conductivity
[6] = not told
[7] = system: target DNA to the specific capture DNA; assay: DNA hybridization sensitivity on the APEX chip; settings: normal DNA
[8] = Buffer capacity, pH and conductivity of buffers used on the APEX chip; settings: for PH: NaPO4: 20 mM adjusted to pH 7.4
[9] = system: DNA; assay: DNA transport (accumulation) on the APEX chip; settings: in words, same field conditions
[10] = system: Reporter DNA to DNA1 or PNA1 capture; assay: Hybridization of phosphodiester-linked oligonucleotides versus PNA analogues; settings: 50 mM buffer

Molecule: N[C@@H](CCC(=O)O)C(=O)O [glutamic acid]
- pI [1]: 3.22

Molecule: c1ccncc1 [pyridine]
- conductivity ([2]; 50 mM): 5.0 +/− 0.8
- pH ([2]; 50 mM): 8.17
- transported [3]: 764 +/− 66
- specific hybridization [3]: 12.8 +/− 4.2 attomol

Molecule: O=C([O-])CC(O)(CC(=O)[O-])C(=O)[O-].[Na+].[Na+].[Na+] [3.3 mM NaCitrate, sodium citrate]
- checkerboard addressing and concentration of fluorescent DNA probe [4]: Rapid (6 second) checkerboard addressing and concentration of the btr-RCA5 fluorescent DNA probe was demonstrated
- Average/Std. Deviation [5]: 986 +/− 38.1 μS/cm
- Measurement 1 [5]: 964 μS/cm
- Measurement 2 [5]: 1.03 mS/cm
- Measurement 3 [5]: 964 μS/cm

Molecule: Cc1cc(C)nc(C)c1 [collidine]
- hybridization efficiency [3]: 3.7
- transported [3]: 382 +/− 63
- specific hybridization [3]: 14.1 +/− 4.6 attomol

Molecule: N[C@@H](CS)C(=O)O [Cysteine]
- Hybridization Sensitivity of DNA [7]: 7.5×10^10 targets
- pK1 ([1]; Table 2): pK1 - 1.7
- pK2 ([1]; Table 2): pK2 - 8.3
- pK3 ([1]; Table 2): pK3 - 10.8
- pl [1]: 5.02
- pI [1]: 5.02
- conductivity ([2]; 50 mM): 9.0 +/− 0.9
- pH ([2]; 50 mM): 5.08
- conductivity ([2]; 250 mM): 21.8 +/− 4.4
- conductivity [5]: ~23 μS/cm
- Average/Std. Deviation [5]: 22.7 +/− 5.09 μS/cm
- Measurement 1 [5]: 27.4 μS/cm
- Measurement 2 [5]: 17.3 μS/cm
- Measurement 3 [5]: 23.5 μS/cm
- conductivity [8]: 25.0 μS
- PH [8]: 5.2
- support of sequence specific electronic hybridization [3]: difficult to evaluate because of poor signal accumulation
- transport [9]: excellent transport

Molecule: Cn1cncc1C[C@H](N)C(=O)O [1(π)-methylhistidine]
- pl [1]: 7.54
- conductivity ([2]; 50 mM): 117 +/− 2.8
- pH ([2]; 50 mM): 7.59
- hybridization efficiency [3]: 21.3
- transported [3]: 141 +/− 20
- specific hybridization [3]: 30.0 +/− 5.0 attomol

Molecule: Cn1cnc(C[C@H](N)C(=O)O)c1 [3(τ)-methylhistidine]
- pl [1]: 7.52
- conductivity ([2]; 50 mM): 39.4 +/− 0.4
- pH ([2]; 50 mM): 7.44
- hybridization efficiency [3]: 20.8
- transported [3]: 259 +/− 48
- specific hybridization [3]: 54.0 +/− 14.8 attomol

Molecule: O=P(O)(O)O [NaPO4, Sodium Phosphate]
- conductance [5]: ~2.9 mS/cm
- Average/Std. Deviation ([5]; listed as 1 mM NaPO4): 128.7 +/− 7.0 μS/cm
- Measurement 1 ([5]; listed as 1 mM NaPO4): 122 μS/cm
- Measurement 2 ([5]; listed as 1 mM NaPO4): 128 μS/cm
- Measurement 3 ([5]; listed as 1 mM NaPO4): 136 μS/cm
- Average/Std. Deviation ([5]; listed as 10 mM NaPO4): 1.44 +/− 0.04 mS/cm
- Measurement 1 ([5]; listed as 10 mM NaPO4): 1.40 mS/cm
- Measurement 2 ([5]; listed as 10 mM NaPO4): 1.44 mS/cm
- Measurement 3 ([5]; listed as 10 mM NaPO4): 1.48 mS/cm
- Average/Std. Deviation ([5]; listed as 20 mM NaPO4): 2.90 +/− 0.11 mS/cm
- Measurement 1 ([5]; listed as 20 mM NaPO4): 2.90 mS/cm
- Measurement 2 ([5]; listed as 20 mM NaPO4): 2.79 mS/cm
- Measurement 3 ([5]; listed as 20 mM NaPO4): 3.00 mS/cm
- conductivity [8]: 1,400.0 μS
- PH [8]: 7.4
- transport [9]: fair transport

Molecule: water [Milli-Q water]
- checkerboard addressing and concentration of fluorescent DNA probe [4]: Rapid (6 second) checkerboard addressing and concentration of the btr-RCA5 fluorescent DNA probe was demonstrated

Molecule: N[C@@H](Cc1c[nH]cn1)C(=O)O [L-histidine]
- pl [1]: 7.47
- conductivity ([2]; 50 mM): 60.1 +/− 0.1
- pH ([2]; 50 mM): 7.65
- non-specific signal as compared to the amount of material transported [3]: 2.2%
- hybridization efficiency [3]: 14.6
- transported [3]: 533 +/− 65
- specific hybridization [3]: 78.0 +/− 9.1 attomol

Molecule: O=C([O-])CCC(=O)[O-].[Na+].[Na+] [5 mM NaSuccinate, sodium succinate]
- checkerboard addressing and concentration of fluorescent DNA probe [4]: Rapid (6 second) checkerboard addressing and concentration of the btr-RCA5 fluorescent DNA probe was demonstrated

Continued, in another order:

- conductivity ([2]; 50 mM): 57.1 +/− 0.3
- pH ([2]; 50 mM): 7.70
Molecule: N[C@H](Cc1c[nH]cn1)C(=O)O [D-histidine]
- pl [1]: 7.47
- hybridization efficiency [3]: 24.3
- transported [3]: 490 +/− 50
- specific hybridization [3]: 119 +/− 11.8 attomol

- Average/Std. Deviation [5]: 147.6 +/− 9.07 μS/cm
- Measurement 1 [5]: 141 μS/cm
- Measurement 2 [5]: 144 μS/cm
- Measurement 3 [5]: 158 μS/cm
- Average/Std. Deviation ([5]; listed as 25 mM HEPES): 9.7 +/− 0.71 μS/cm
- Measurement 1 ([5]; listed as 25 mM HEPES): 9.16 μS/cm
- Measurement 2 ([5]; listed as 25 mM HEPES): 9.44 μS/cm
- Measurement 3 ([5]; listed as 25 mM HEPES): 10.5 μS/cm
Molecule: O=S(=O)(O)CCN1CCN(CCO)CC1 [250 mM HEPES, HEPES]
- checkerboard addressing and concentration of fluorescent DNA probe [4]: Rapid (6 second) checkerboard addressing and concentration of the btr-RCA5 fluorescent DNA probe was demonstrated

- conductivity ([2]; 50 mM): 17.6 +/− 1.6
- pH ([2]; 50 mM): 9.08
- pH above the surface of the permeation layer [6]: > 5
Molecule: c1c[nH]cn1 [imidazole]
- hybridization efficiency [3]: 4.0
- transported [3]: 528 +/− 63
- specific hybridization [3]: 21.2 +/− 6.6 attomol

- conductivity ([2]; 50 mM): 3.6 +/− 0.6
- pH ([2]; 50 mM): 6.71
- conductivity [8]: 10.0 μS
- PH [8]: 7.3
Molecule: NCCC(=O)O [β-Alanine]
- pK1 ([1]; Table 2): pK1 - 3.6
- pK2 ([1]; Table 2): pK2 - 10.2
- pl [1]: 6.90
- support of sequence specific electronic hybridization [3]: neither GABA, b-alanine, nor glycine was capable of supporting sequence specific hybridization
- transport [9]: excellent transport

- conductivity ([2]; 50 mM): 74.5 +/− 5.5
- pH ([2]; 50 mM): 8.07
Molecule: NCCC(=O)N[C@@H](Cc1cnc[nH]1)C(=O)O [carnosine]
- pl [1]: 8.17
- hybridization efficiency [3]: 26.1
- transported [3]: 129 +/− 45
- specific hybridization [3]: 33.7 +/− 12.1 attomol

- conductivity ([2]; 50 mM): 2.5 +/− 0.2
- pH ([2]; 50 mM): 6.01
- conductivity ([2]; 250 mM): 7.8 +/− 0.5
- pH ([2]; 250 mM): 6.11
Molecule: NCC(=O)O [glycine]
- pl [1]: 5.97
- support of sequence specific electronic hybridization [3]: neither GABA, b-alanine, nor glycine was capable of supporting sequence specific hybridization

- conductivity ([2]; 50 mM): 5.6 +/− 0.6
- pH ([2]; 50 mM): 6.76
Molecule: NCCCC(=O)O [GABA, g-amino-butyric acid]
- pl [1]: 7.30
- DNA:DNA hybridization ([10]; 200 nA): no hybridization was observed
- PNA:DNA hybridization ([10]; 200 nA): Hybridization in GABA was seen
- hybridization with either PNA:DNA or DNA:DNA duplexes ([10]; 500 nA): lack of hybridization
- support of sequence specific electronic hybridization [3]: neither GABA, b-alanine, nor glycine was capable of supporting sequence specific hybridization

- conductivity [8]: 4.5 μS
- PH [8]: 4.6
Molecule: NCCS(=O)(=O)O [Taurine]
- transport [9]: excellent transport
